# Measurements as given in patent publication US10646478B2, “Methods for treatment of melanoma” (CHILDREN'S MEDICAL CENTER CORPORATION, priority 2011, dated 2020).
# Legend:
# [1] = system: gene expression (123-gene melanoma signature); assay: Microarray analysis of leflunomide treated zebrafish embryos; format: in vivo
# [2] = system: Human BRAFV600 (M491) cells; assay: Human BRAFV600 (M491) primary melanoma xenografts in mice; format: in vivo, mouse; details: in combination with BRAFi and MEKi
# [3] = arthritis patients; cited from earlier work
# A375 cells = assay: Cell viability of melanoma cell line A375 (FIG. 28b); format: cell-based, human
# Text: FIG. 28a, M481 cells. FIG. 28b, A375 cells. FIG. 28c, M405 cells. FIG. 28d, M528 cells. FIG. 28e, M715 cells.
# [4] = system: sox10, dct, ntl, gata1 expression; assay: In situ hybridization for neural crest and non-neural crest lineage markers; details: zebrafish, in vivo
# [5] = system: crestin+ neural crest progenitors; assay: In situ hybridization (ISH) for crestin in zebrafish embryos (chemical screen for suppressors of neural crest development); format: in vivo; details: for crestin expression by ISH: zebrafish embryos, 50% epiboly to 24 hpf
# Procedure: The screen was performed essentially as previously described^31. In brief, WT embryos were collected, staged and then plated at a density of 10 embryos per well in a […] tissue culture plate in 200 ul of E3 water. At 50% epiboly, 100 ul of a 3× chemical stock was added to each well using a Hamilton liquid handling robot, yielding a final 1× concentration. For the majority of the chemicals in the library, this yielded a concentration of ˜33 uM. The libraries used were the BIOMOL 480, Sigma LOPAC 1280, and selected additional compounds obtained through the Children's Hospital Boston Chemical Screening facility. Compounds known to affect pigmentation in Xenopus were obtained from a screen previously described^32, 33. After treatment, embryos were rinsed in E3 water, pronase treated to remove chorions, washed 4× in E3 and 1× in PBT, and then fixed in 4% PFA for 24 hours. Fixed embryos were changed to 100% methanol 24 h later, and kept until the time of ISH.
# Embryos underwent automated ISH using a Biolane HTI robot with a crestin riboprobe as previously described^31. All wells were manually scored by eye, assigning a score within a range of 1 (no crestin staining) to 3 (no change in crestin) to 5 (marked increase in crestin). Note was also taken of chemicals that affected migratory patterns in both A-P and D-V directions, and overall morphology. […] All hits were validated in larger, independent clutches of 100-200 embryos using chemicals obtained from independent suppliers.
# A375 cell line = assay: Microarray analysis of A375 cells treated with leflunomide; format: cell-based, human; details: 25 uM, 3 days
# Procedure: Expression analysis was performed using Illumina WG6 v3 arrays, and the data was analyzed using Illumina Genome Studio.
smiles,measurement,setting,value
Cc1oncc1C(=O)Nc1ccc(C(F)(F)F)cc1 [leflunomide],number of genes upregulated,"[1]; 6.5 uM, 50% epiboly to 24 hpf, 2-fold",60 genes
same,genes upregulated in the 123-gene melanoma signature that are downregulated,[1]; leflunomide treated embryos,49%
same,tumor growth,[2],significantly impair tumor growth
same,treatment-related adverse event more prevalent than with placebo,[3],elevation of liver transaminase
same,cell survival of A375 cells,A375 cells,impair cell survival
same,expression of sox10 and dct (ISH),[4],reduced expression of sox10 and dct
same,intensity of mesoderm marker ntl and blood marker gata1 (ISH),[4],No significant difference is seen in intensity
same,ability to inhibit neural crest development (rank order of effect),"[5]; Example III, different concentrations, crestin ISH",approximately the same as compounds 5 and 6
same,crestin expression by ISH,[5],reduction in expression of the neural crest
same,crestin expression by ISH,[5]; listed as Leflunomide,phenocopied NSC210627
same,gene expression in A375 (microarray),A375 cell line,downregulation of genes required for neural crest development
